From ChEMBL document CHEMBL3112504, “Design, structural and biological characterization of a VEGF inhibitor β-hairpin-constrained peptide” (2014)
Active and inactive are the calls of the source. No cut-off for these calls is given here. Peptide text beside a SMILES is read from it.

What was measured:
HUVEC [1] = assay: Inhibition of VEGFR in HUVEC assessed as reduction in Akt phosphorylation at 25 to 100 ng/ml after 15 mins by Western blotting analysis; assay type: cell-based; details: Homo sapiens
HUVEC [2] = assay: Inhibition of VEGF-induced HUVEC proliferation at 50 to 100 […] after 48 hrs by CyQuant cell proliferation assay; assay type: functional, Homo sapiens
HUVEC [3] = assay: Induction of proapoptosis in VEGF-treated HUVEC assessed as increase in caspase 3 activity after 8 hrs by fluorimetric assay; assay type: functional, cell-based; details: Homo sapiens
HUVEC [4] = assay: Induction of proapoptosis in HUVEC assessed as increase in caspase 3 activity at 25 to 100 ng/ml after 8 hrs by fluorimetric assay; assay type: functional, cell-based; details: Homo sapiens
HUVEC [5] = assay: Inhibition of VEGFR in HUVEC assessed as reduction in ERK1/2 phosphorylation at 25 to 100 ng/ml after 15 mins by Western blotting analysis; assay type: cell-based; details: Homo sapiens
HUVEC [6] = assay: Induction of proapoptosis in VEGF-treated HUVEC assessed as increase in caspase 3 activity at 25 to 100 ng/ml after 8 hrs by fluorimetric assay; assay type: functional, cell-based; details: Homo sapiens
HUVEC [7] = assay: Inhibition of VEGFR in HUVEC assessed as reduction in VEGF-induced Akt phosphorylation at 25 to 100 ng/ml after 15 mins by Western blotting analysis; assay type: cell-based; details: Homo sapiens
HUVEC [8] = assay: Inhibition of VEGFR in HUVEC assessed as reduction in VEGF-induced ERK1/2 phosphorylation at 25 to 100 ng/ml after 15 mins by Western blotting analysis; assay type: cell-based; details: Homo sapiens
HUVEC [9] = assay: Inhibition of VEGFR in HUVEC assessed as reduction in VEGF-induced Akt phosphorylation at 100 ng/ml after 15 mins by Western blotting analysis; assay type: cell-based; details: Homo sapiens
HUVEC [10] = assay: Induction of proapoptosis in VEGF-treated HUVEC assessed as increase in caspase 3 activity at 100 ng/ml after 8 hrs by fluorimetric assay; assay type: functional, cell-based; details: Homo sapiens
HUVEC [11] = assay: Inhibition of VEGFR in HUVEC assessed as reduction in VEGF-induced ERK1/2 phosphorylation at 100 ng/ml after 15 mins by Western blotting analysis; assay type: cell-based; details: Homo sapiens

CC[C@H](C)[C@H](NC(=O)[C@H](Cc1c[nH]c2ccccc12)NC(=O)[C@H](CC(C)C)NC(=O)[C@H](CS)NC(=O)[C@H](CCC(N)=O)NC(=O)[C@@H](N)CCCCN)C(=O)N[C@@H](CCCNC(=N)N)C(=O)N[C@@H](CO)C(=O)NCC(=O)N[C@@H](CC(=O)O)C(=O)N[C@@H](CCCNC(=N)N)C(=O)N1CCC[C@H]1C(=O)N[C@@H](Cc1c[nH]c2ccccc12)C(=O)N[C@@H](Cc1ccc(O)cc1)C(=O)N[C@@H](CS)C(=O)N[C@H](C(=O)N[C@@H](CO)C(=O)O)[C@@H](C)O (H-KQCLWIRSGDRPWYCTS-OH)
inhibition (HUVEC [1]): inactive | inhibition (INH) (HUVEC [2]): >95% | Activity (HUVEC [3]): Dose-dependent effect | Activity (HUVEC [4]): inactive | inhibition (HUVEC [5]): inactive | Activity (HUVEC [6]): Active | inhibition (HUVEC [7]): Active | inhibition (HUVEC [8]): Active

H-KPDRWSQWRSTYSLSIG-OH
inhibition (HUVEC [2]; Homo sapiens): inactive | inhibition (HUVEC [9]): inactive | Activity (HUVEC [10]): inactive | inhibition (HUVEC [11]): inactive
